From patent US8962628B2, “Herbicidal 5H-quinoxaline-6-one derivatives detailed description” (Syngenta Limited, priority 2010, dated 2015) come the findings set out here.

Holding throughout (assay type): in vivo
For experiment [1], the system named is Amaranthus retroflexus. Nature of the experiment: Herbicidal action post-emergence (Example B1). Conditions: post-emergence spray, rate 1000 g/ha, evaluated after 13 days; 10=total damage to plant, 0=no damage to plant. How it is done:
(§1) Seeds of a variety of test species were sown in standard soil in pots. After 8 days cultivation (post-emergence) under controlled conditions in a glasshouse (at 24/16° C., day/night; 14 hours light; 65% humidity), the plants were sprayed with an aqueous spray solution derived from the formulation of the technical active ingredient in acetone/water (50:50) solution containing 0.5% Tween 20 (polyoxyethelyene sorbitan monolaurate, CAS RN 9005-64-5). The test plants were then grown under controlled conditions in a glasshouse (at 24/16° C., day/night; 14 hours light; 65% humidity) and watered twice daily. After 13 days, the test was evaluated (10=total damage to plant; 0=no damage to plant).

Experiment [2] has as its system Echinochloa crus-galli. The experiment can be described thus: Herbicidal action post-emergence (Example B1). The settings on record: post-emergence spray, rate 1000 g/ha, evaluated after 13 days; 10=total damage to plant, 0=no damage to plant. Here is the method:
as §1

For experiment [3], the system named is Ipomea hederaceae. The experiment can be described thus: Herbicidal action post-emergence (Example B1). Conditions: post-emergence spray, rate 1000 g/ha, evaluated after 13 days; 10=total damage to plant, 0=no damage to plant. Here is the method: as §1
Experiment [4] relates to Setaria faberi. The experiment can be described thus: Herbicidal action post-emergence (Example B1). The settings on record: post-emergence spray, rate 1000 g/ha, evaluated after 13 days; 10=total damage to plant, 0=no damage to plant. How it is done:
as §1

The next experiment deals with Solanum nigrum. The experiment can be described thus: Herbicidal action post-emergence (Example B1). The settings on record: post-emergence spray, rate 1000 g/ha, evaluated after 13 days; 10=total damage to plant, 0=no damage to plant. Here is the method:
as §1

Experiment [5] concerns Amaranthus retroflexus. The experiment can be described thus: Herbicidal action post-emergence (Example B2). The settings on record: post-emergence spray with adjuvant X-77, rate 500 g/ha, evaluated after 15 days; 10=total damage to plant, 0=no damage to plant. Here is the method:
(§2) Seeds of crop and representative weed species were sown in standard soil in pots. After cultivation for 14 days under controlled conditions in a glasshouse (at 22/16° C., day/night; 16 hours light; 65% humidity), the plants were sprayed. The spray solution was prepared by dissolving the technical active ingredient in acetone containing 10.56 wt % Emulsogen EL, 42.22 wt % N-methylpyrrolidone and 2.22 wt % DPG-monoethyl ether to give a 5% stock solution. This was then diluted with water containing 0.2% (v/v) of the adjuvant X-77 to give the desired treatment concentration.
(§3) The test plants were then grown on under controlled conditions in a glasshouse (at 22/16° C., day/night; 16 hours light; 65% humidity) and watered twice daily. After 15 days the test was evaluated (10=total damage to plant; 0=no damage to plant).

Experiment [6] concerns Echinochloa crus-galli. Nature of the experiment: Herbicidal action post-emergence (Example B2). The settings on record: post-emergence spray with adjuvant X-77, rate 500 g/ha, evaluated after 15 days; 10=total damage to plant, 0=no damage to plant. How it is done:
as §2, §3

The test system of experiment [7] is Ipomea hederaceae. The experiment can be described thus: Herbicidal action post-emergence (Example B2). Conditions: post-emergence spray with adjuvant X-77, rate 500 g/ha, evaluated after 15 days; 10=total damage to plant, 0=no damage to plant. How it is done: as §2, §3
Experiment [8] relates to Setaria faberi. Nature of the experiment: Herbicidal action post-emergence (Example B2). Conditions: post-emergence spray with adjuvant X-77, rate 500 g/ha, evaluated after 15 days; 10=total damage to plant, 0=no damage to plant. How it is done: as §2, §3

Take `CC1(C)C(=O)C(c2ccccc2C(F)(F)F)C(=O)c2nccnc21` (stereo not shown) [Compound E1, 8,8-dimethyl-6-(2-trifluoromethyl-phenyl)-8H-quinoxaline-5,7-dione]: the “AMARE damage to plant (score 0-10)” value with Amaranthus retroflexus [1] and in the experiment with Amaranthus retroflexus [5] was 10 in each case. The “ECHCG damage to plant (score 0-10)” value in the experiment with Echinochloa crus-galli [2] is reported as 9; in the experiment with Echinochloa crus-galli [6] it was 3. Moreover, the “IPOHE damage to plant (score 0-10)” value in the experiment on Ipomea hederaceae [3] was 9; in the experiment on Ipomea hederaceae [7], 8. In addition, the “SETFA damage to plant (score 0-10)” value with Setaria faberi [4] turned out to be 9; with Setaria faberi [8], 7. The “SOLNI damage to plant (score 0-10)” value in the experiment on Solanum nigrum worked out at 10.
Consider `CC(C)C(=O)OC1=C(c2ccccc2C(F)(F)F)C(=O)C(C)(C)c2nccnc21` [Compound F1, isobutyric acid 8,8-dimethyl-7-oxo-6-(2-trifluoromethyl-phenyl)-7,8-dihydro-quinoxalin-5-yl ester], for which, in the experiment on Amaranthus retroflexus [5], the “AMARE damage to plant (score 0-10)” value was determined as 10. Besides, the “ECHCG damage to plant (score 0-10)” value in the experiment with Echinochloa crus-galli [6] is recorded as 8. In the experiment on Ipomea hederaceae [7], the “IPOHE damage to plant (score 0-10)” value is on record as 8. The “SETFA damage to plant (score 0-10)” value with Setaria faberi [8] amounted to 8.
